This passage reports MCC50 and EC50 results from ChEMBL document CHEMBL1136382, “Spiro[pyrrolidine-2,2'-adamantanes]: synthesis, anti-influenza virus activity and conformational properties” (Bioorg Med Chem Lett, 2003).

The subject of assay [1] is MDCK. As to the kind of experiment: Minimum cytotoxic concentration required to cause a microscopically detectable alteration of MDCK, Madin-Darby canine kidney cell morphology. It counts as functional, Canis lupus familiaris.
Another assay relates to Epithelial cell. The assay can be described thus: Antiviral activity against influenza B (Hong kong/5/72) in human epithelial cells. The format is functional, cell-based.
In assay [2] the test system is MDCK. As to the kind of experiment: cells. To be noted: Canis lupus familiaris.

Broadly, the EC50 is the midpoint of the concentration-response curve. A lower EC50 goes with higher potency in that assay. `CN1CCCC12C1CC3CC(C1)CC2C3` (stereo not given) returned an MCC50 in the assay with MDCK [1] of 357 µM. Also, the values for the EC50 in the assay with Epithelial cell and with MDCK [2] were above 1040 µM and 2.9 µM, respectively.

As to `CC1CN(C)C2(C1)C1CC3CC(C1)CC2C3` (stereo not given), in the assay with MDCK [1], the MCC50 was above 226 µM. Also, the results for the concentration for a half-maximal effect (EC50) in the assay on Epithelial cell and in the assay with MDCK [2] were above 746 µM and 3.3 µM, respectively.

With `CC1CNC2(C1)C1CC3CC(C1)CC2C3` (stereo not given), the MCC50 in the assay with MDCK [1] amounted to 313.6 µM. Also, the EC50 was 1040 µM in the assay on Epithelial cell and 3.3 µM with MDCK [2].

Take `NC12CC3CC(CC(C3)C1)C2` [AMANTADINE]: the MCC50 in the assay with MDCK [1] was above 1211.8 µM. Besides, the EC50 in the assay with Epithelial cell is above 1330 µM; with MDCK [2], 1.1 µM.

In the case of `NC(=O)c1ncn([C@@H]2O[C@H](CO)[C@@H](O)[C@H]2O)n1` [RIBAVIRIN], the MCC50 with MDCK [1] was above 276.9 µM. In addition, the results for the EC50 in the assay on Epithelial cell and in the assay with MDCK [2] were above 1020 µM and 3.7 µM, respectively.

Compound `CC1CCNC12C1CC3CC(C1)CC2C3` (stereo not given) registered an MCC50 with MDCK [1] above 280 µM. The EC50 in the assay on Epithelial cell was above 1040 µM; with MDCK [2] it was 3.7 µM.

As for `C1CNC2(C1)C1CC3CC(C1)CC2C3` (stereo not given), in the assay with MDCK [1], the MCC50 was above 610.5 µM. The EC50 is above 1100 µM in the assay on Epithelial cell and 1.8 µM in the assay on MDCK [2].

The compound `CC1CCC2(C3CC4CC(C3)CC2C4)N1C` (stereo not given) had an MCC50 in the assay on MDCK [1] of 55.3 µM. The values for the EC50 in the assay with Epithelial cell and with MDCK [2] were 149 µM and 2.7 µM, respectively.

`CC1CCC2(N1)C1CC3CC(C1)CC2C3` (stereo not given) gave an MCC50 with MDCK [1] above 414 µM. The EC50 is above 1040 µM in the assay on Epithelial cell and 2.5 µM in the assay with MDCK [2].

Compound `CC1CCN(C)C12C1CC3CC(C1)CC2C3` (stereo not given) registered an MCC50 in the assay with MDCK [1] above 60 µM. The EC50 was above 746 µM in the assay with Epithelial cell and 12.5 µM with MDCK [2].
